Source: patent US20230042936A1, “PYRIDO[2,3-d]PYRIMIDIN-7(8H)-ONES AS CDK INHIBITORS” (PROSENESTAR LLC, priority 2020, published 2023)
“Also recorded” adds a separate entry of the source. Like-named read-outs stand apart in the source and are kept apart here.

Experiments:
CDK1/CycB1 = CDK1/CycB1 (Homo sapiens, UniProt P06493); test: Kinase profiling; type: biochemical; conditions: 10 semi-logarithmic dilutions from 50 μM, singlicate
CDK3/CycC = CDK3/CycC (Homo sapiens, UniProt Q00526); test: Kinase profiling; type: biochemical; conditions: 10 semi-logarithmic dilutions from 50 μM, singlicate
CDC7/DBF4 = CDC7/DBF4 (Homo sapiens, UniProt O00311); test: Kinase profiling; type: biochemical; conditions: 10 semi-logarithmic dilutions from 50 μM, singlicate; read-out: IC50 CDC7/DBF4
CDK2/CycE1 = CDK2/CycE1 (Homo sapiens, UniProt P24941); test: Kinase profiling; type: biochemical; conditions: 10 semi-logarithmic dilutions from 50 μM, singlicate
CDK9/CycK = CDK9/CycK (Homo sapiens, UniProt P50750); test: Kinase profiling; type: biochemical; conditions: 10 semi-logarithmic dilutions from 50 μM, singlicate
[1] = test system: U87MG glioblastoma cell line; test: Proliferation assay: determination of GI50; type: cell-based, human; conditions: Homo sapiens, U-87 MG
Description: (§1) The following human tumor cell lines, all Retinoblastoma (Rb)-proficient, were used in this study: MDA-MB231 (breast cancer), MDA-MB453 (breast cancer), U87MG (glioblastoma) and H460 (lung cancer). MDA-MB468 (breast cancer) and SW1783 (glioblastoma) Rb-deficient cells were also included in the study, as well as the MCF10A non-transformed mammary epithelial cell line. Tumor cell lines were maintained in DMEM or RPMI-1640 medium, depending on the cell line, supplemented with 10% FBS. MCF10A cells were grown in complete mammary epithelial growth medium (MEGM, Lonza). Cell lines were authenticated by short tandem repeat (STR) loci profiling with the GenePrint® 10 System (Promega).
(§2) All human cancer cell lines (Table 2) were obtained from the American Type Culture Collection, and were maintained in DMEM (Hyclone) or RPMI-1640 medium (Sigma) supplemented with 10% fetal bovine serum (Sigma). Non-transformed MCF10 cell line was maintained in MEGM Mammary Epithelial Cell Growth Medium (Lonza). Immortalized mouse embryonic fibroblasts (MEFs) were maintained in DMEM with 10% fetal bovine serum.
(§3) 48 h later cells were fixed with PFA 4% for 15 minutes, stained with 10 μg/ml Hoechst 33342 (Molecular Probes, Thermo Fisher) for 30 minutes and washed twice with PBS. Cells were imaged in a high content screening system (Opera Phoenix™, Perkin Elmer) using a 20× dry objective (30 fields/well). Cell counts were determined by the Opera software (Perkin Elmer) and data were further processed with SPSS software. GI50 was calculated by estimating the absolute IC50 using dose-response inhibition tool in Prism6 (Graphpad Software Inc.).

[2] = test system: MCF10 non-transformed mammary epithelial cell line; test: Proliferation assay: determination of GI50; type: cell-based, human; conditions: Homo sapiens, MCF10; Table 3; 48 h; n = 2 independent experiments
Description: as §1, §2, §3

ERK1 = ERK1 (Homo sapiens, UniProt P27361); test: Kinase profiling; type: biochemical; conditions: 10 semi-logarithmic dilutions from 50 μM, singlicate
CDK8/CycC = CDK8/CycC (Homo sapiens, UniProt P49336); test: Kinase profiling; type: biochemical; conditions: 10 semi-logarithmic dilutions from 50 μM, singlicate
DYRK1A = DYRK1A (Homo sapiens, UniProt Q13627); test: Kinase profiling; type: biochemical; conditions: 10 semi-logarithmic dilutions from 50 μM, singlicate
CDK7/CycH/MAT1 = CDK7/CycH/MAT1 (Homo sapiens, UniProt P50613); test: Kinase profiling; type: biochemical; conditions: 10 semi-logarithmic dilutions from 50 μM, singlicate
[3] = molecular target: panel of 27 kinases (CDK family members); test: Kinase profiling, results in words; type: biochemical; conditions: from Table 1
CDK2/CycA2 = CDK2/CycA2 (Homo sapiens, UniProt P24941); test: Kinase profiling; type: biochemical; conditions: 10 semi-logarithmic dilutions from 50 μM, singlicate
[4] = test system: MDA-MB-231 human breast cancer cells; test: Cell cycle analysis (DNA content, flow cytometry); type: cell-based; conditions: GI50 concentration; FIG. 1
Description: FIG. 1 depicts DNA content profiles of MDA-MB-231 human breast cancer cells treated with subject compounds or commercial CDK inhibitors, showing the percentage of cells at the different cell cycle phases after 48 hours of the treatments indicated. (n=6 technical replicates).
Cells were collected by trypsinization, washed with PBS and fixed with cold 70% ethanol. Cells were treated with 250 μg/ml RNase (Qiagen) for 30 minutes at 37° C. and stained with 10 μg/ml Propidium Iodide (Sigma). Cell cycle was analyzed by flow cytometry using a LSR Fortessa Analyzer. Cell cycle profiles were generated and analyzed with FlowJo software.
Cells were collected by tripsinization at several times after treatment with the indicated compounds and, then, fixed with cold 70% Ethanol. DNA content was determined by staining with propidium iodide (10 μg/ml, Sigma Aldrich). Data acquisition was performed with a LSR Fortessa analyzer (BD Biosciences) and analysed using FlowJo software.

DYRK2 = molecular target: T1, DYRK2 (Homo sapiens, UniProt Q92630); test: Kinase profiling; type: biochemical; conditions: 10 semi-logarithmic dilutions from 50 μM, singlicate; read-out: IC50 DYRK2
T1 sequence (Q92630 1-601): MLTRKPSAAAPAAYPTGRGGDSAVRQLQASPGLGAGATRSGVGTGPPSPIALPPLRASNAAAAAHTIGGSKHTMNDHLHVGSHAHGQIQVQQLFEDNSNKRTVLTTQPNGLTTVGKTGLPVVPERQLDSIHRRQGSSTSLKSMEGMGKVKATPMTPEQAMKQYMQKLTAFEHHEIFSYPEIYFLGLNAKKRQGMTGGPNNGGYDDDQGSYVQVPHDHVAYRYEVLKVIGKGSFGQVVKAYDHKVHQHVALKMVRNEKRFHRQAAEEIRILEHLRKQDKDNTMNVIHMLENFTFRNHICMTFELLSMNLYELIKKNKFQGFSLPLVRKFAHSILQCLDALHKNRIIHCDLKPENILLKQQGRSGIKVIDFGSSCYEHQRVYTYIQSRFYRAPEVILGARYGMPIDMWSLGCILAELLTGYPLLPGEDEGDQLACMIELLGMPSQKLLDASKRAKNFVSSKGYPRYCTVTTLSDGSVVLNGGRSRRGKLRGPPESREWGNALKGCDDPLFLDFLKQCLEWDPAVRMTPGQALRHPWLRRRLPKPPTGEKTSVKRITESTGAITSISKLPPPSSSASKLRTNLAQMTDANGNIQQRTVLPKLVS

HIPK2 = HIPK2 (Homo sapiens, UniProt Q9H2X6); test: Kinase profiling; type: biochemical; conditions: 10 semi-logarithmic dilutions from 50 μM, singlicate; read-out: IC50 HIPK2
PIM1 = PIM1 (Homo sapiens, UniProt P11309); test: Kinase profiling; type: biochemical; conditions: 10 semi-logarithmic dilutions from 50 μM, singlicate
[5] = Table 3, 48 h, n = 3 independent experiments, read-out: GI50 U87MG
[6] = Table 4, n = 4, read-out: Growth inhibition GI50, Glioblastoma pRB Wild-Type U87MG

Sequence of CDK1/CycB1 (P06493 whole entry): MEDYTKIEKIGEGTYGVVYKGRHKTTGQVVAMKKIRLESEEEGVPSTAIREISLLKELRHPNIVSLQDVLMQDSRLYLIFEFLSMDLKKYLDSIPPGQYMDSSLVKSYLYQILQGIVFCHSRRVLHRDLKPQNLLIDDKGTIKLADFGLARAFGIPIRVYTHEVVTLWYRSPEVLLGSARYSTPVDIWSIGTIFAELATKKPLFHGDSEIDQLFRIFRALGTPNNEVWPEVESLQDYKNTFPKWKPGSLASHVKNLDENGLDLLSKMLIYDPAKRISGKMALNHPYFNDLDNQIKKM
Sequence of CDK1/CycB1 (P14635 whole entry partner): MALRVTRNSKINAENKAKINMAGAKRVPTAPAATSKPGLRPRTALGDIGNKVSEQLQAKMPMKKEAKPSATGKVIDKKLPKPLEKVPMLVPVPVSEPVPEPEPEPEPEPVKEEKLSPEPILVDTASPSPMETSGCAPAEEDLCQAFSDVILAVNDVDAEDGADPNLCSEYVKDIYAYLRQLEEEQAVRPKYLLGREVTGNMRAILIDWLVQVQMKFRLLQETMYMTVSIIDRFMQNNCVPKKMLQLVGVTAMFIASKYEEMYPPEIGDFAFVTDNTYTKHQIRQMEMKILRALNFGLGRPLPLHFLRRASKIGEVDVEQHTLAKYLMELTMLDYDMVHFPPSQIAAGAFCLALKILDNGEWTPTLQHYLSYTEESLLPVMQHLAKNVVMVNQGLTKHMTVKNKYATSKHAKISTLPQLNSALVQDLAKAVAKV
Sequence of CDC7/DBF4 (O00311 whole entry): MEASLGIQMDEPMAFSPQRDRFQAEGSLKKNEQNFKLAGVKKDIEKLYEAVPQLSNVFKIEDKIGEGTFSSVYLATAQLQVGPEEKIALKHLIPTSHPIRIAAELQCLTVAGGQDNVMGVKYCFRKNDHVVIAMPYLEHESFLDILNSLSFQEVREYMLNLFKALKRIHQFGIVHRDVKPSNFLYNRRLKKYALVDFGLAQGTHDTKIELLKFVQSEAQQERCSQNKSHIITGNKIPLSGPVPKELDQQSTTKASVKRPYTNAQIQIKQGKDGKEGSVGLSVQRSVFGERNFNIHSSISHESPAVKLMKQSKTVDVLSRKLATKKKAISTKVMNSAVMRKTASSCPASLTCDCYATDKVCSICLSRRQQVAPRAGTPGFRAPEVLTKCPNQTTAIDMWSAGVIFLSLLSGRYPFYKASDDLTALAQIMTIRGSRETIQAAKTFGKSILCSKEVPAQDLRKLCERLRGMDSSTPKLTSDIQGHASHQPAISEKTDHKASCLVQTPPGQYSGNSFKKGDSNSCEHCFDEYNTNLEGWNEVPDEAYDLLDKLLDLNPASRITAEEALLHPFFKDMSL
Sequence of CDC7/DBF4 (Q9UBU7 whole entry partner): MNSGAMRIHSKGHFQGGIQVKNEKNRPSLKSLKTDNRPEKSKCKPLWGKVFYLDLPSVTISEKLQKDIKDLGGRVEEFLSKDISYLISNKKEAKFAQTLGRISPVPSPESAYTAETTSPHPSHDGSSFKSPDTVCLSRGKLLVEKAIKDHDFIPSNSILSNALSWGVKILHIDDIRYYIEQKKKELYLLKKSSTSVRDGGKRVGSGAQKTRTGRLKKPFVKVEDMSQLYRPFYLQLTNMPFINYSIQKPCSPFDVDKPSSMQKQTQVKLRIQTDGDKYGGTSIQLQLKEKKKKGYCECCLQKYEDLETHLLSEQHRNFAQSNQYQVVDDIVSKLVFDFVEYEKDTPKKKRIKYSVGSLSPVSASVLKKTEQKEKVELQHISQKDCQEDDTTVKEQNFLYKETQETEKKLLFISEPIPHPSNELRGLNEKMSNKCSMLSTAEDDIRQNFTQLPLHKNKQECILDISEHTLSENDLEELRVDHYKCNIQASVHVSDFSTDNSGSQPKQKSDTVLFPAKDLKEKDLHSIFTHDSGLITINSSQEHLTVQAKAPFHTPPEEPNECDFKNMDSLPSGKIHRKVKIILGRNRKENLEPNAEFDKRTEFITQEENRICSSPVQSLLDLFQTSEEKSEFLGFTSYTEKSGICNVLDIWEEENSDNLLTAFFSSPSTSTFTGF
Sequence of CDK9/CycK (P50750 whole entry): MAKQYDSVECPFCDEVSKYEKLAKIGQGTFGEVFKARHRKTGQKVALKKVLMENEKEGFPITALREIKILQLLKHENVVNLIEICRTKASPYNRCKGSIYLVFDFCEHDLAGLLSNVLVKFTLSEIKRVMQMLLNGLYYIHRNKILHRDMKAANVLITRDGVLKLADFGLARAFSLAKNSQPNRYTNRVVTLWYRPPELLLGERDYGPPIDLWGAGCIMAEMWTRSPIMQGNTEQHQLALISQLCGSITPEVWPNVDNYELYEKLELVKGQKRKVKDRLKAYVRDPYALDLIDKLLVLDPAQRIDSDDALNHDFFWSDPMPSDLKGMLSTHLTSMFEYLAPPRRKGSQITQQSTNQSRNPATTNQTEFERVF
Sequence of CDK9/CycK (O75909 whole entry partner): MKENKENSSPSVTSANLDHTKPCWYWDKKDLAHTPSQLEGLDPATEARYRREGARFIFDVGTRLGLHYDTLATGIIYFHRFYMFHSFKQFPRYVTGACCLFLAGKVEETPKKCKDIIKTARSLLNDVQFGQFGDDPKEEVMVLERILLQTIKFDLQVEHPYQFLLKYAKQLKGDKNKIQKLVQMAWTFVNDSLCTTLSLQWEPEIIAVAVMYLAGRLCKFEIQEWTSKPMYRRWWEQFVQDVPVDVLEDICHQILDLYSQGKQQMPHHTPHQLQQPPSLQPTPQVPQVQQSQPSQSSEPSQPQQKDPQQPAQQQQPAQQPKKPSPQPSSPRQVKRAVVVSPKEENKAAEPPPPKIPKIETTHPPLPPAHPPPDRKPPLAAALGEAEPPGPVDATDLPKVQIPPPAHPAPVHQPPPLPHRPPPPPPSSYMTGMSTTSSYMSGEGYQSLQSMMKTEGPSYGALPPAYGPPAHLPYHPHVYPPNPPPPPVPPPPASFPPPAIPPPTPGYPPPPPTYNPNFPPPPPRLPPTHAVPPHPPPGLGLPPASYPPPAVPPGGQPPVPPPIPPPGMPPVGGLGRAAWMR
Sequence of PIM1 (P11309 whole entry, species assumed): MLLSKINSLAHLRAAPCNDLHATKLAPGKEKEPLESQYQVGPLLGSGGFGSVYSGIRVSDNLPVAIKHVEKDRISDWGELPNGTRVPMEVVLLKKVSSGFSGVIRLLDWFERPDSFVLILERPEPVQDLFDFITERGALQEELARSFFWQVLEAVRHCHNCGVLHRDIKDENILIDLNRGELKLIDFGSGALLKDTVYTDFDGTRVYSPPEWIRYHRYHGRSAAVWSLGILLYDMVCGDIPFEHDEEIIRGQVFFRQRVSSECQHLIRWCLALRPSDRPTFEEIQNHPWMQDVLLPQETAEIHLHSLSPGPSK
Sequence of HIPK2 (Q9H2X6 whole entry): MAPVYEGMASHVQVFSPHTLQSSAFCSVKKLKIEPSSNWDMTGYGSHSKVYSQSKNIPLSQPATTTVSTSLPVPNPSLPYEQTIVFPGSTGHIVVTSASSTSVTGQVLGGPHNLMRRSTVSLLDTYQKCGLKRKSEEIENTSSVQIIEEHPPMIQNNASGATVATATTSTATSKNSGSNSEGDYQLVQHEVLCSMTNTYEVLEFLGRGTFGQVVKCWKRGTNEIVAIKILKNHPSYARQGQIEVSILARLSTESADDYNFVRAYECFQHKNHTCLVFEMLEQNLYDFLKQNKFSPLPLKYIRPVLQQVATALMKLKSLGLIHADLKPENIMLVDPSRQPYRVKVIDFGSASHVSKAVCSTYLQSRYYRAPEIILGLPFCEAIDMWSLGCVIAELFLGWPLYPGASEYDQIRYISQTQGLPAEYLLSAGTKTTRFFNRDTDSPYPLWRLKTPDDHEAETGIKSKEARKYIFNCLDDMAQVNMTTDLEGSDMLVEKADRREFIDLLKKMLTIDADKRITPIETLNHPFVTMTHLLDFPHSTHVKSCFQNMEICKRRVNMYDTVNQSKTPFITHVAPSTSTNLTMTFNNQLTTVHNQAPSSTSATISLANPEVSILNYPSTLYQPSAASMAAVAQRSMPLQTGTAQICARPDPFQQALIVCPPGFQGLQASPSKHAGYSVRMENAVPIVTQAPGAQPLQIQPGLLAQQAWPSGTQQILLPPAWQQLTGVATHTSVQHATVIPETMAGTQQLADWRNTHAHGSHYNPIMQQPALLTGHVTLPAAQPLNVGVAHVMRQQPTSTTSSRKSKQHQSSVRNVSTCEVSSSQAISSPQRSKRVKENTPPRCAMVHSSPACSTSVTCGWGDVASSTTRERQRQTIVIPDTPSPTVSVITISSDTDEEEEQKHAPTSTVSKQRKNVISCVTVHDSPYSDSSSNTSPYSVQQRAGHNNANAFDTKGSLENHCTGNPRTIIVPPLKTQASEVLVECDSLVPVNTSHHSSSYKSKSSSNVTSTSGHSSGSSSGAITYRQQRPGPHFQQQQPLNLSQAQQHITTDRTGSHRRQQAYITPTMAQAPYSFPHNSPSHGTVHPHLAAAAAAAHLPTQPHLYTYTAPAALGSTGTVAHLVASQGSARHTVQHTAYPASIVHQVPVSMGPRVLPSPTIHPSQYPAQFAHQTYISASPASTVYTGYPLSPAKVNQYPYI
Sequence of ERK1 (P27361 whole entry): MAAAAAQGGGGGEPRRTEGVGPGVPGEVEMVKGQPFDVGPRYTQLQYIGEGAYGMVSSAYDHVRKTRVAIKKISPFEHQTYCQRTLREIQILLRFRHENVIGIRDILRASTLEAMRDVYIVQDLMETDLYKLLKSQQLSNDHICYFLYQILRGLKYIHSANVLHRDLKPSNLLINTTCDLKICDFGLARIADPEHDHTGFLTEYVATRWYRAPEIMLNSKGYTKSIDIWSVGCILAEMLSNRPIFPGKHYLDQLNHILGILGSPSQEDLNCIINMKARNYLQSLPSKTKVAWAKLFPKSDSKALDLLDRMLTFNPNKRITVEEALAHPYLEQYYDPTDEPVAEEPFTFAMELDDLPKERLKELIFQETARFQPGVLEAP

| Structure (SMILES) | IC50 (CDK1/CycB1) | IC50 (CDK3/CycC) | IC50 (CDC7/DBF4) | IC50 (CDK2/CycE1) | IC50 (CDK9/CycK) | GI50 [1, 5] | GI50 [2] | IC50 (ERK1) | IC50 (CDK8/CycC) | IC50 (DYRK1A) | IC50 (CDK7/CycH/MAT1) | kinase affinity profile [3] | IC50 (CDK2/CycA2) | cell cycle arrest by DNA content [4] | cell death (sub-G1 accumulation) [4] | IC50 (DYRK2) | IC50 (HIPK2) | IC50 (PIM1) | GI50 [1, 6] | additional affinity for CDK1/2 [3] | other results |
| --- | --- | --- | --- | --- | --- | --- | --- | --- | --- | --- | --- | --- | --- | --- | --- | --- | --- | --- | --- | --- | --- |
| CC(O)CCN1CCN(c2ccc(Nc3ncc4ccc(=O)n([C@@H]5CC6CCC5C6)c4n3)cc2)CC1 (stereo partly drawn) [PS005, 8-((2R)-bicyclo[2.2.1]heptan-2-yl)-2-((4-(4-(3-hydroxybutyl)piperazin-1-yl)phenyl)amino)pyrido[2,3-d]pyrimidin-7(8H)-one] | 40.7 nM | 54.1 nM | 1530 nM | 17.2 nM | 10.1 nM | 50 nM | 50 nM | 4530 nM | 17.1 nM | 1380 nM | 72.3 nM | bind many other CDK family members | 13 nM | accumulation of cells both in G1 and G2/M phases | led to cell death | 4720 nM | 6060 nM | 7190 nM |  |  |  |
| CC(O)CCC1CCN(c2ccc(Nc3ncc4ccc(=O)n([C@@H]5CC6CCC5C6)c4n3)cc2)CC1 (stereo partly drawn) [PS004, 8-((2R)-bicyclo[2.2.1]heptan-2-yl)-2-((4-(4-(3-hydroxybutyl)piperidin-1-yl)phenyl)amino)pyrido[2,3-d]pyrimidin-7(8H)-one] | 16400 nM | 2100 nM | 9900 nM | 303 nM | 141 nM | 4500 nM | 1430 nM | 37800 nM | 162 nM | > 50000 nM | 21700 nM | affinity not only for CDK4/6 but also for CDK2/9 | 452 nM | accumulation of cells both in G1 and G2/M phases; also recorded: arresting cells in G1/G2/M cell cycle phases |  | 40500 nM | > 50000 nM | > 50000 nM | 5500 nM |  |  |
| O=c1ccc2cnc(Nc3ccc(N4CCC(OCC5(CO)COC5)CC4)cc3)nc2n1[C@@H]1CC2CCC1C2 (stereo partly drawn) [PS016, 8-((2R)-bicyclo[2.2.1]heptan-2-yl)-2-((4-(4-((3-(hydroxymethyl)oxetan-3-yl)methoxy)piperidin-1-yl)phenyl)amino)pyrido[2,3-d]pyrimidin-7(8H)-one] | 614 nM | 555 nM | 1980 nM | 71.7 nM | 46.9 nM | 1120 nM | 130 nM | 10700 nM | 37.9 nM | 28800 nM | 2370 nM |  | 49.7 nM | induced G2/M arrest |  | 19700 nM | > 50000 nM | 40100 nM |  | additional affinity | affinity for CDK5 [3]: presented affinity |
| CC(=O)c1c(C)c2cnc(Nc3ccc(N4CCC(CCCO)CC4)cc3)nc2n(C2CCCC2)c1=O [PS009, 6-acetyl-8-cyclopentyl-2-((4-(4-(3-hydroxypropyl)piperidin-1-yl)phenyl)amino)-5-methylpyrido[2,3-d]pyrimidin-7(8H)-one] | 32500 nM | 7660 nM | > 50000 nM | 2940 nM | 56 nM | 900 nM | 1170 nM | 48900 nM | > 50000 nM | > 50000 nM | 30800 nM | mainly bound to CDK4/6/ with also an interesting preference for CDK2 and CDK9 | 768 nM | induced accumulation of cells in G0/G1; also recorded: arrested cells predominantly in G1 |  | > 50000 nM | > 50000 nM | > 50000 nM | 6900 nM | additional affinity |  |
| O=c1ccc2cnc(Nc3ccc(N4CCNCC4)cc3)nc2n1[C@@H]1CC2CCC1C2 (stereo partly drawn) [PS007, 8-((2R)-bicyclo[2.2.1]heptan-2-yl)-2-((4-(piperazin-1-yl)phenyl)amino)pyrido[2,3-d]pyrimidin-7(8H)-one] | 97.3 nM | 40.1 nM | 537 nM | 7.8 nM | 7.17 nM | 40 nM | 70 nM | 2750 nM | 307 nM | 1180 nM | 91.1 nM | bind many other CDK family members | 17.1 nM | accumulation of cells both in G1 and G2/M phases | led to cell death | 2310 nM | 5560 nM | 485 nM |  |  |  |
| CC(O)COC1CCN(c2ccc(Nc3ncc4ccc(=O)n([C@@H]5CC6CCC5C6)c4n3)cc2)CC1 (stereo partly drawn) [PS006, 8-((2R)-bicyclo[2.2.1]heptan-2-yl)-2-((4-(4-(2-hydroxypropoxy)piperidin-1-yl)phenyl)amino)pyrido[2,3-d]pyrimidin-7(8H)-one] | 1960 nM | 885 nM | 5570 nM | 108 nM | 148 nM | 2340 nM | 420 nM | 8320 nM | 103 nM | 46800 nM | 8000 nM | high affinity for CDK6/2/5/9 | 203 nM | induced G2/M arrest; also recorded: arrested cells in G2/M phases |  | > 50000 nM | 14700 nM | > 50000 nM | 2200 nM |  | affinity for CDK5 [3]: presented affinity |
